# Measured values from patent US20240050409A1, “Methods and Compositions for Treating Psychotic Disorders” (SOUND PHARMACEUTICALS INCORPORATED, priority 2014, published 2024).
# “Also recorded” adds a separate entry of the source.
# What was measured:
# [1] = tested on: dopamine D2-dependent modulation of EPSPs in PFC pyramidal cells of NVHL rats; experiment: Slice electrophysiology: D2 (quinpirole) modulation of EPSPs in PFC layer V pyramidal cells of NVHL rats; format: in vivo, Sprague-Dawley rats; details: adult NVHL rat PFC slices, quinpirole 5 μM; treatment during development
# Experimental: If juvenile oxidative stress is the cause of physiological anomalies observed in adult NVHL rats, NAC treatment can rescue these alterations. Whole-cell recordings were conducted from pyramidal neurons in adult brain slices containing the medial PFC of SHAM (n=12), NVHL (n=16), and NAC-treated NVHL rats (n=14). As previously shown in adult NVHL rats and other rodent models of schizophrenia (Niwa et al., 2010; Tseng et al., 2008), the dopamine D2-dependent modulation of excitatory postsynaptic potentials (EPSPs) in layer V pyramidal cells was lost in NVHL rats (as shown in FIGS. 13A-C). This loss is likely due to abnormal maturation of PFC interneurons, as the normal adult D2 modulation includes a GABA-A receptor component (Tseng and O'Donnell, 2007), but oxidative stress in pyramidal neurons may also play a role. To determine whether altered PVI-dependent PFC synaptic responses are due to oxidative stress, rats were treated with NAC during development and then tested for D2 modulation of PFC physiology.
# Antioxidant pretreatment regimen: NAC (BioAdvantexPharma, Mississauga, Ontario, Canada) was administered in the drinking water at 900 mg/l. NAC treatment started at P5 or at P35, and previous work in mice has shown that NAC consumed by the dam is transmitted to the pups through her milk (das Neves Duarte et al., 2012). NAC treatment ended at P50. […]
# [2] = tested on: NVHL rats; experiment: Mismatch negativity (MMN), auditory evoked potentials, NVHL rats; format: in vivo, Sprague-Dawley rats; details: juvenile treatment
# Experimental: Abnormal excitation-inhibition balance in adult NVHL rats can yield altered information processing that would be prevented by NAC treatment if it depended on oxidative stress. Mismatch negativity (MMN) was tested using auditory evoked potentials in an oddball paradigm in SHAM (n=6), NVHL (n=3), and NAC-treated NVHL rats (n=3). MMN has high translational relevance, as it is attenuated in schizophrenia patients (Javitt et al., 1993) and in animal models (Ehrlichman et al., 2009). Electroencephalographic (EEG) electrodes were implanted in NVHL, NAC-treated NVHL, and SHAM rats. This observation is consistent with the effect of NAC on MMN in patients (Lavoie et al., 2008), and indicates the NVHL model reproduces an important disease marker that can be prevented by juvenile antioxidant treatment. As MMN depends on NMDA receptor function (Umbricht et al., 2000) and NMDA hypofunction in PVI is suspected in schizophrenia, it is possible that MMN improvement with NAC results from restored PVI activity. […]
# Mismatch Negativity: NVHL, NAC-treated NVHL, and sham female rats were implanted with chronic EEG electrodes under isoflurane anesthesia. […] A difference wave was constructed by subtracting the standard wave from the deviant wave, and MMN was quantified by measuring the area under the curve in the period between 35 and 100 ms after the stimulus. […]
compound,measurement,setting,value
"CC(=O)N[C@@H](CS)C(=O)O [NAC, N-acetyl cysteine]",effect on lost D2 modulation (quinpirole attenuation) of EPSPs,[1],rescued; also recorded: reverses
same,effect on MMN deficit,[2],improving
